{"source": "ChEMBL document CHEMBL5247625", "about": "“Discovery and characterization of novel potent BCR-ABL degraders by conjugating allosteric inhibitor” (Eur J Med Chem, 2022)", "key": {"[1]": {"target": "T1, Protein cereblon/Tyrosine-protein kinase ABL1/Breakpoint cluster region protein (Homo sapiens, UniProt P00519+P11274+Q96SW2)", "T1 sequence (P00519 whole entry, looked up)": "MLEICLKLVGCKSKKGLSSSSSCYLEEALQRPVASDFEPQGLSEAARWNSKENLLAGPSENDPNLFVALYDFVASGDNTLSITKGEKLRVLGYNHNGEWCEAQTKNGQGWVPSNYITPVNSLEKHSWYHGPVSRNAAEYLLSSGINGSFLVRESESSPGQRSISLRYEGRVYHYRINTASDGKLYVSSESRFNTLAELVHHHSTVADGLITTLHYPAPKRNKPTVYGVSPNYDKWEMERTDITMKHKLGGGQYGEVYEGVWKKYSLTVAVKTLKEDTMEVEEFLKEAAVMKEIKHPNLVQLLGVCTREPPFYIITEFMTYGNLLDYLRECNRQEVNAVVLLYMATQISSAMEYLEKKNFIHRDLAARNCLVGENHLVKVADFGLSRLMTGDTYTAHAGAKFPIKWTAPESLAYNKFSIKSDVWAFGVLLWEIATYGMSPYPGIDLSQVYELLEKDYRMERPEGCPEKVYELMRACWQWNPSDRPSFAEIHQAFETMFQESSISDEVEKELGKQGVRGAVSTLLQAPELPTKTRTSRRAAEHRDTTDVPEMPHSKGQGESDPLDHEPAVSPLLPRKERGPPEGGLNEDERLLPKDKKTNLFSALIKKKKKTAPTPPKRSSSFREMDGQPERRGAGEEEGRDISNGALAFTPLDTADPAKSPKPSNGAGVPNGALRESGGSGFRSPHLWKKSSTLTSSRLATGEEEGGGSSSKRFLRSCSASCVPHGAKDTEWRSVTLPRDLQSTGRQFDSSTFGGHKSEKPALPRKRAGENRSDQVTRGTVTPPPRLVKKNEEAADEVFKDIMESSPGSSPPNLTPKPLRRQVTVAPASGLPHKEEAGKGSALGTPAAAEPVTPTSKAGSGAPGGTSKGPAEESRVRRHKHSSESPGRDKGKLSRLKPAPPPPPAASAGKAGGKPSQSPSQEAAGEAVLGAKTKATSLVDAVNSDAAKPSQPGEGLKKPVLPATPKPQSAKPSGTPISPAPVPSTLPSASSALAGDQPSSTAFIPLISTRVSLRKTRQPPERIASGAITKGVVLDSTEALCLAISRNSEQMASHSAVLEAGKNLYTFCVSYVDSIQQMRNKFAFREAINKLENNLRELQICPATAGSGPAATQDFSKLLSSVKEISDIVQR", "T1 sequence (P11274 whole entry, looked up)": "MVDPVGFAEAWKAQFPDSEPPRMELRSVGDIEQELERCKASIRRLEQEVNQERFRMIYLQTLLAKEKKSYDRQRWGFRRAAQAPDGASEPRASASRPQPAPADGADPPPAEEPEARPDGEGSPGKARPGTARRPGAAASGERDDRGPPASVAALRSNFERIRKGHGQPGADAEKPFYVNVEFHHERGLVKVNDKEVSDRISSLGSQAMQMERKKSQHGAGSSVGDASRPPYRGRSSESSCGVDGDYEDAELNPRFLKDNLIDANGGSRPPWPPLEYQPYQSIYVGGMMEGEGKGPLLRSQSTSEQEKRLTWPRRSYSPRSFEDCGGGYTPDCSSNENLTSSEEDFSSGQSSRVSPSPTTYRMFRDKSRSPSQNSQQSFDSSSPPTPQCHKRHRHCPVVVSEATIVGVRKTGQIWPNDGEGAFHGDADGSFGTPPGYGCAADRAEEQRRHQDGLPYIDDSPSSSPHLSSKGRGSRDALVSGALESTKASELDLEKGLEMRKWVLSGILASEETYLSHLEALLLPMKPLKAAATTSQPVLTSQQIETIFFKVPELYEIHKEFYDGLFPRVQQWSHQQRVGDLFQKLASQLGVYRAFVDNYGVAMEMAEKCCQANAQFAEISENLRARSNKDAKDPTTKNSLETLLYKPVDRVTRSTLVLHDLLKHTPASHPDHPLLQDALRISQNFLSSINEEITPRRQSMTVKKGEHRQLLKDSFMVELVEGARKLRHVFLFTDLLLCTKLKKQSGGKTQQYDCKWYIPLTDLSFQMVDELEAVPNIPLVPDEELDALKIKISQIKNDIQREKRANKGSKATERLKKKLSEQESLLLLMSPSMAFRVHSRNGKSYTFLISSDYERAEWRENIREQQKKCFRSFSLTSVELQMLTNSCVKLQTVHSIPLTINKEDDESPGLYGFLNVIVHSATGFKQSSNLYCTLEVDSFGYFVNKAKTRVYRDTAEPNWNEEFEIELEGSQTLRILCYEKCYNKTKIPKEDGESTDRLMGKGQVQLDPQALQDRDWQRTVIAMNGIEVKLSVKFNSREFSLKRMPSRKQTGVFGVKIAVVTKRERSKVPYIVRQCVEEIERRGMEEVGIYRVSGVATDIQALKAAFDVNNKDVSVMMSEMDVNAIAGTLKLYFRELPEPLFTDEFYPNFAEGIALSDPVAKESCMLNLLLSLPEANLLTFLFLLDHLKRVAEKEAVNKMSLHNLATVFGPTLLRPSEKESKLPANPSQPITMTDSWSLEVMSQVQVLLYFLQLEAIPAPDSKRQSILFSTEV", "T1 sequence (Q96SW2 whole entry, looked up)": "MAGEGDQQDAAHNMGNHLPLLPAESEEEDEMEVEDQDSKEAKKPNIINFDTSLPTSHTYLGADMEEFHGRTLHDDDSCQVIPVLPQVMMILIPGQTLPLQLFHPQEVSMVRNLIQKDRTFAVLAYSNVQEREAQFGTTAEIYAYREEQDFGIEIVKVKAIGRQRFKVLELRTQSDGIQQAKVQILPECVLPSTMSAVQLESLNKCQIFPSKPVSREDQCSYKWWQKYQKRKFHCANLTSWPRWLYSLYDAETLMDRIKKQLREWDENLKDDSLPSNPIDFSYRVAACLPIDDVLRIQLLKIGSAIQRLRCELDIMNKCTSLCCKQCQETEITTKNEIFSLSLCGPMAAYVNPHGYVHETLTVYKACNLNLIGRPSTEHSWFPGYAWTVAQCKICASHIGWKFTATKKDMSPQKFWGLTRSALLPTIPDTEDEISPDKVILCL", "assay": "Protac activity at CRBN/BCR-ABL in human K562 cells assessed as BCR-ABL turnover rate in presence of cycloheximide by Western blotting analysis", "type": "cell-based"}, "[2]": {"target": "Bcr/Abl fusion protein (Homo sapiens) (UniProt P00519+P11274)", "sequence (P00519 whole entry, looked up, the tested form may be a part)": "as the sequence (P00519 whole entry, looked up) above", "sequence (P11274 whole entry, looked up, the tested form may be a part)": "as the sequence (P11274 whole entry, looked up) above", "assay": "Inhibition of BCR-ABL phosphorylation at Tyr245 residue in human K562 cells at 100 nM incubated for 6 hrs followed by compound washout measured upto 96 hrs by Western blotting analysis", "type": "cell-based"}, "[3]": {"system": "K562", "assay": "Cytotoxicity against human K562 cells assessed as inhibition of cell growth at 100 nM incubated for 6 hrs followed by compound washout measured upto 96 hrs", "type": "functional, cell-based"}, "[4]": {"target": "T1, Protein cereblon/Tyrosine-protein kinase ABL1/Breakpoint cluster region protein", "assay": "Protac activity at CRBN/BCR-ABL in human K562 cells assessed as increase in BCR-ABL degradation at 5 nM by Western blotting analysis", "type": "cell-based"}, "[5]": {"target": "T1, Protein cereblon/Tyrosine-protein kinase ABL1/Breakpoint cluster region protein", "assay": "Protac activity at CRBN/BCR-ABL in human K562 cells assessed as induction of BCR-ABL degradation at 100 nM pretreated with MG132 for 2 hrs followed by compound addition measured after 8 hrs by Western blotting analysis", "type": "cell-based", "conditions": "time 10.0 hrs"}, "[6]": {"system": "Protein cereblon/Tyrosine-protein kinase ABL1/Breakpoint cluster region protein (Mus musculus), P00520+Q6PAJ1+Q8C7D2 [E255V]", "assay": "Protac activity at CRBN/BCR-ABL E255V mutant in mouse 32D cells assessed as increase in BCR-ABL degradation at 1 to 1000 nM by Western blotting analysis", "type": "cell-based", "conditions": "dose 1-1000 nM"}, "[7]": {"target": "T2, Signal transducer and activator of transcription 5A (Homo sapiens) (UniProt P42229)", "T2 sequence (whole entry)": "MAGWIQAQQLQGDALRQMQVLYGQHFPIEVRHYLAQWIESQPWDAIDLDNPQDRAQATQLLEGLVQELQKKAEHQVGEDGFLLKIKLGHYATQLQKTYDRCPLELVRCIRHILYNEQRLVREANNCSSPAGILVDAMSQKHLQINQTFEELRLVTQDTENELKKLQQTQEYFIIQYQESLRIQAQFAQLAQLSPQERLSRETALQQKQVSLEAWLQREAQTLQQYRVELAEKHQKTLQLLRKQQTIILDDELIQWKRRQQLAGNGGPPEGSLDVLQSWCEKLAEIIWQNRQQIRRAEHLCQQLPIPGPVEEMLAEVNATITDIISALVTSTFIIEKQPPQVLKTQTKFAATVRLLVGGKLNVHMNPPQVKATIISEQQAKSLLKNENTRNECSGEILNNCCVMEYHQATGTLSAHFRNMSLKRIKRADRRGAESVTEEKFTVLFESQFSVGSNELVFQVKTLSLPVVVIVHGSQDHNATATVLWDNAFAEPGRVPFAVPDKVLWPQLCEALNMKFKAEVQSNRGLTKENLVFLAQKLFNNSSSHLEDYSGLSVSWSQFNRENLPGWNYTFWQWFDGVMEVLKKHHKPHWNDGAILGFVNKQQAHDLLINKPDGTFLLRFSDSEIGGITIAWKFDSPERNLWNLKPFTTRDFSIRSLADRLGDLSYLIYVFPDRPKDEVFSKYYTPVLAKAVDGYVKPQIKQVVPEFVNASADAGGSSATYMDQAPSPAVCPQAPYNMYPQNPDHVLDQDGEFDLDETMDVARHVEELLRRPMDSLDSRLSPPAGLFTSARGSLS", "assay": "Inhibition of STAT5 phosphorylation at Tyr694 residue in human K562 cells at 100 nM by Western blotting analysis", "type": "cell-based", "conditions": "time <= 18.0 hrs, TDE = time-dependent effect"}, "[8]": {"target": "T1, Protein cereblon/Tyrosine-protein kinase ABL1/Breakpoint cluster region protein", "assay": "Protac activity at CRBN/BCR-ABL in human K562 cells assessed as induction of c-ABL degradation at 100 nM pretreated with lenalidomide for 2 hrs followed by compound addition measured after 8 hrs by Western blotting analysis", "type": "cell-based", "conditions": "time 10.0 hrs"}, "[9]": {"system": "Protein cereblon/Tyrosine-protein kinase ABL1/Breakpoint cluster region protein (Mus musculus), P00519+P11274+Q8C7D2 [F359V]", "assay": "Protac activity at CRBN/asciminib resistance BCR-ABL F359V mutant in mouse 32D cells assessed as increase in BCR-ABL degradation at 1 to 1000 nM by Western blotting analysis", "type": "cell-based", "conditions": "dose 1-1000 nM"}, "[10]": {"system": "Protein cereblon/Tyrosine-protein kinase ABL1/Breakpoint cluster region protein (Mus musculus), P00519+P11274+Q8C7D2 [G671R]", "assay": "Protac activity at CRBN/asciminib resistance BCR-ABL G671R mutant in mouse 32D cells assessed as increase in BCR-ABL degradation at 1 to 1000 nM by Western blotting analysis", "type": "cell-based", "conditions": "dose 1-1000 nM"}, "[11]": {"target": "T1, Protein cereblon/Tyrosine-protein kinase ABL1/Breakpoint cluster region protein", "assay": "Protac activity at CRBN/BCR-ABL in human K562 cells assessed as increase in BCR-ABL degradation at 100 nM incubated for 6 hrs by Western blotting analysis", "type": "cell-based"}, "[12]": {"system": "Protein cereblon/Tyrosine-protein kinase ABL1/Breakpoint cluster region protein (Mus musculus), P00520+Q6PAJ1+Q8C7D2 [T315I]", "assay": "Protac activity at CRBN/BCR-ABL T315I mutant in mouse 32D cells assessed as increase in BCR-ABL degradation at 1 to 1000 nM by Western blotting analysis", "type": "cell-based", "conditions": "dose 1-1000 nM"}, "[13]": {"target": "T1, Protein cereblon/Tyrosine-protein kinase ABL1/Breakpoint cluster region protein", "assay": "Protac activity at CRBN/BCR-ABL in human K562 cells assessed as induction of BCR-ABL degradation at 100 nM pretreated with asciminib for 2 hrs followed by compound addition measured after 8 hrs by Western blotting analysis", "type": "cell-based", "conditions": "time 10.0 hrs"}, "[14]": {"system": "Protein cereblon/Tyrosine-protein kinase ABL1/Breakpoint cluster region protein (Mus musculus), P00519+P11274+Q8C7D2 [V468F]", "assay": "Protac activity at CRBN/BCR-ABL V468F mutant in mouse 32D cells assessed as increase in BCR-ABL degradation at 1 to 1000 nM by Western blotting analysis", "type": "cell-based", "conditions": "dose 1-1000 nM"}, "[15]": {"target": "T2, Signal transducer and activator of transcription 5A (Homo sapiens)", "assay": "Inhibition of STAT5 phosphorylation at Tyr694 residue in human K562 cells at 0.3 to 100 nM incubated for 16 hrs by Western blotting analysis", "type": "cell-based", "conditions": "dose 0.3-100 nM"}, "[16]": {"system": "Protein cereblon/Tyrosine-protein kinase ABL1/Breakpoint cluster region protein (Mus musculus), P00519+P11274+Q8C7D2 [P223S]", "assay": "Protac activity at CRBN/asciminib resistance BCR-ABL P223S mutant in mouse 32D cells assessed as increase in BCR-ABL degradation at 1 to 1000 nM by Western blotting analysis", "type": "cell-based", "conditions": "dose 1-1000 nM"}, "[17]": {"system": "Protein cereblon/Tyrosine-protein kinase ABL1/Breakpoint cluster region protein (Mus musculus), P00519+P11274+Q8C7D2 [Y253H/E255V]", "assay": "Protac activity at CRBN/BCR-ABL Y253H/E255V double mutant in mouse 32D cells assessed as increase in p-BCR-ABL degradation at 1 to 1000 nM by Western blotting analysis", "type": "cell-based", "conditions": "dose 1-1000 nM"}, "[18]": {"system": "K562", "assay": "Down regulation of […] expression in human K562 cells at 100 nM measured after 16 hrs by LC-MS analysis", "type": "functional, cell-based"}, "[19]": {"system": "K562", "assay": "Down regulation of IKZF3 expression in human K562 cells at 100 nM measured after 16 hrs by LC-MS analysis", "type": "functional, cell-based"}}, "note": "Activity calls are given as the source filed them. The calls are words filed in the database; no cut-off is given here.", "data": [{"smiles": "O=C1CCC(N2Cc3c(SCCCCCCN4CCN(C5CCN(c6ncc(C(=O)Nc7ccc(OC(F)(F)Cl)cc7)cc6-c6ccn[nH]6)CC5)CC4)cccc3C2=O)C(=O)N1", "note": "(centres undefined)", "values": [{"measurement": "Activity", "setting": "[1]", "result": "Active"}, {"measurement": "inhibition", "setting": "[2]", "result": "inactive"}, {"measurement": "Activity", "setting": "[3]", "result": "Active"}, {"measurement": "Activity", "setting": "[4]", "result": 81.8, "unit": "%"}, {"measurement": "Activity", "setting": "[5]", "result": "inactive"}, {"measurement": "Activity", "setting": "[6]", "result": "Active"}, {"measurement": "inhibition", "setting": "[7]", "result": "Tde"}, {"measurement": "Activity", "setting": "[8]", "result": "inactive"}, {"measurement": "Activity", "setting": "[9]", "result": "Active"}, {"measurement": "Activity", "setting": "[10]", "result": "Active"}, {"measurement": "Activity", "setting": "[11]", "result": "Active"}, {"measurement": "Activity", "setting": "[12]", "result": "Active"}, {"measurement": "Activity", "setting": "[13]", "result": "inactive"}, {"measurement": "Activity", "setting": "[14]", "result": "inactive"}, {"measurement": "inhibition", "setting": "[15]", "result": "Active"}, {"measurement": "Activity", "setting": "[16]", "result": "Active"}, {"measurement": "Activity", "setting": "[17]", "result": "Active"}, {"measurement": "Activity", "setting": "[18]", "result": "Active"}, {"measurement": "Activity", "setting": "[19]", "result": "Active"}]}]}
